System: selected panel of PTPs (mPTPB, SHP2, PTP1B, CD45, LYP, FAP-1)
Experiment: PTP activity assay, selected panel of PTPs
Assay type: biochemical
Details: pH 7, 25 °C

SMILES: Cc1ccc(O)c(C(O)(C(F)(F)F)C(F)(F)F)c1 [1b]
- PTP inhibitory activity (in words): moderate activity

SMILES: OC(c1ccccc1)(C(F)(F)F)C(F)(F)F [1a]
- PTP inhibitory activity (in words): No appreciable activity

SMILES: O=C(COc1ccc2cc(C(O)(C(F)(F)F)C(F)(F)F)c(O)cc2c1)NCCc1ccc(Cl)cc1Cl [7h]
- PTP inhibitory activity (in words): moderate activities

SMILES: O=C(COc1ccc2cc(C(O)(C(F)(F)F)C(F)(F)F)c(O)cc2c1)NC1c2ccccc2-c2ccccc21 [7i]
- PTP inhibitory activity (in words): moderate activities

SMILES: O=C(COc1ccc2cc(C(O)(C(F)(F)F)C(F)(F)F)c(O)cc2c1)N1c2ccccc2Sc2ccccc21 [7p]
- PTP inhibitory activity (in words): very high activity

SMILES: Oc1cc2ccccc2cc1C(O)(C(F)(F)F)C(F)(F)F [1f]
- PTP inhibitory activity (in words): the most potent one

SMILES: O=C(COc1ccc2cc(C(O)(C(F)(F)F)C(F)(F)F)c(O)cc2c1)NC12CC3CC(CC(C3)C1)C2 [7d]
- PTP inhibitory activity (in words): moderate activities

— publication PMC4982551 (MedChemComm, 2016)
